Experimental data reported in patent publication US20100003191A1, “AURONE DERIVATIVE-CONTAINING COMPOSITION FOR DIAGNOSIS” (NAGASAKI UNIVERSITY, priority 2006, published 2010).

Test: In vivo radioactivity biodistribution experiment in normal mice (Example 1, Table 13)
Design: species or system ddY mice
Experimental: ^125I-labeled compounds were diluted with 10% ethanol-containing physiological saline. […] After their blood was collected, organs were removed, and the weights and radioactivities thereof were measured.
When any of the aurone derivatives was used, sufficient radioactivity to perform imaging of intracerebral amyloid migrated to the brain from the early stage of injection (1.7-4.6% ID/g). […] It was also shown that, in any of the aurone derivatives, in vivo radioactivity behavior is discharged mainly from the liver to the bile duct and the intestinal tract.

Row | Compound | Biodistribution of radioactivity, Blood (2 min after injection) | Biodistribution of radioactivity, Blood (10 min after injection) | Biodistribution of radioactivity, Blood (30 min after injection) | Biodistribution of radioactivity, Blood (60 min after injection) | Biodistribution of radioactivity, Brain (2 min after injection) | Biodistribution of radioactivity, Brain (10 min after injection) | Biodistribution of radioactivity, Brain (30 min after injection) | Biodistribution of radioactivity, Brain (60 min after injection) | Biodistribution of radioactivity, Heart (2 min after injection) | Biodistribution of radioactivity, Heart (10 min after injection) | Biodistribution of radioactivity, Heart (30 min after injection) | Biodistribution of radioactivity, Heart (60 min after injection) | Biodistribution of radioactivity, Intestine (2 min after injection) | Biodistribution of radioactivity, Intestine (10 min after injection) | Biodistribution of radioactivity, Intestine (30 min after injection) | Biodistribution of radioactivity, Intestine (60 min after injection) | Biodistribution of radioactivity, Kidney (2 min after injection) | Biodistribution of radioactivity, Kidney (10 min after injection) | Biodistribution of radioactivity, Kidney (30 min after injection) | Biodistribution of radioactivity, Kidney (60 min after injection) | other results
1 | CN(C)c1ccc(/C=C2\Oc3ccc([125I])cc3C2=O)cc1 [[^125I]7] | 2.69 (0.29) % injected dose per gram | 1.96 (0.34) % injected dose per gram | 1.48 (0.15) % injected dose per gram | 0.94 (0.25) % injected dose per gram | 1.89 (0.38) % injected dose per gram | 0.69 (0.21) % injected dose per gram | 0.26 (0.04) % injected dose per gram | 0.11 (0.03) % injected dose per gram | 3.80 (0.66) % injected dose per gram | 1.36 (0.66) % injected dose per gram | 0.55 (0.29) % injected dose per gram | 0.45 (0.11) % injected dose per gram | 1.65 (0.35) % injected dose per gram | 5.37 (1.10) % injected dose per gram | 9.50 (1.45) % injected dose per gram | 11.85 (2.70) % injected dose per gram | 7.84 (1.92) % injected dose per gram | 8.31 (3.19) % injected dose per gram | 10.37 (2.34) % injected dose per gram | 4.51 (1.43) % injected dose per gram | Biodistribution of radioactivity, Liver (2 min after injection): 10.21 (1.87) % injected dose per gram; Biodistribution of radioactivity, Liver (10 min after injection): 7.86 (2.25) % injected dose per gram; Biodistribution of radioactivity, Liver (30 min after injection): 5.60 (0.59) % injected dose per gram; Biodistribution of radioactivity, Liver (60 min after injection): 4.33 (0.76) % injected dose per gram; Biodistribution of radioactivity, Lung (2 min after injection): 4.02 (0.83) % injected dose per gram; Biodistribution of radioactivity, Lung (10 min after injection): 2.44 (0.54) % injected dose per gram; Biodistribution of radioactivity, Lung (30 min after injection): 1.51 (0.41) % injected dose per gram; Biodistribution of radioactivity, Lung (60 min after injection): 1.17 (0.26) % injected dose per gram; Biodistribution of radioactivity, Pancreas (2 min after injection): 3.17 (0.68) % injected dose per gram; Biodistribution of radioactivity, Pancreas (10 min after injection): 1.04 (0.25) % injected dose per gram; Biodistribution of radioactivity, Pancreas (30 min after injection): 0.55 (0.21) % injected dose per gram; Biodistribution of radioactivity, Pancreas (60 min after injection): 0.30 (0.06) % injected dose per gram; Biodistribution of radioactivity, Spleen (2 min after injection): 1.76 (0.28) % injected dose per gram; Biodistribution of radioactivity, Spleen (10 min after injection): 0.81 (0.54) % injected dose per gram; Biodistribution of radioactivity, Spleen (30 min after injection): 0.51 (0.10) % injected dose per gram; Biodistribution of radioactivity, Spleen (60 min after injection): 0.37 (0.11) % injected dose per gram; Biodistribution of radioactivity, Stomach (2 min after injection): 1.21 (0.29) % injected dose per organ; Biodistribution of radioactivity, Stomach (10 min after injection): 1.35 (1.25) % injected dose per organ; Biodistribution of radioactivity, Stomach (30 min after injection): 1.87 (0.79) % injected dose per organ; Biodistribution of radioactivity, Stomach (60 min after injection): 1.51 (1.04) % injected dose per organ
2 | CNc1ccc(/C=C2\Oc3ccc([125I])cc3C2=O)cc1 [[^125I]12] | 4.16 (0.98) % injected dose per gram | 2.72 (1.01) % injected dose per gram | 2.84 (1.48) % injected dose per gram | 2.41 (0.70) % injected dose per gram | 3.17 (0.45) % injected dose per gram | 1.22 (0.09) % injected dose per gram | 0.32 (0.02) % injected dose per gram | 0.24 (0.05) % injected dose per gram | 5.07 (0.47) % injected dose per gram | 2.17 (0.34) % injected dose per gram | 0.98 (0.21) % injected dose per gram | 0.84 (0.37) % injected dose per gram | 3.06 (1.11) % injected dose per gram | 6.59 (3.43) % injected dose per gram | 10.34 (4.91) % injected dose per gram | 14.04 (2.87) % injected dose per gram | 9.91 (2.00) % injected dose per gram | 11.44 (2.76) % injected dose per gram | 6.00 (2.14) % injected dose per gram | 3.52 (0.77) % injected dose per gram | Biodistribution of radioactivity, Liver (2 min after injection): 11.26 (2.81) % injected dose per gram; Biodistribution of radioactivity, Liver (10 min after injection): 9.70 (2.78) % injected dose per gram; Biodistribution of radioactivity, Liver (30 min after injection): 6.11 (2.16) % injected dose per gram; Biodistribution of radioactivity, Liver (60 min after injection): 4.91 (0.72) % injected dose per gram; Biodistribution of radioactivity, Lung (2 min after injection): 6.86 (0.65) % injected dose per gram; Biodistribution of radioactivity, Lung (10 min after injection): 4.44 (0.39) % injected dose per gram; Biodistribution of radioactivity, Lung (30 min after injection): 2.41 (0.66) % injected dose per gram; Biodistribution of radioactivity, Lung (60 min after injection): 2.94 (0.62) % injected dose per gram; Biodistribution of radioactivity, Pancreas (2 min after injection): 4.83 (0.60) % injected dose per gram; Biodistribution of radioactivity, Pancreas (10 min after injection): 1.81 (0.15) % injected dose per gram; Biodistribution of radioactivity, Pancreas (30 min after injection): 0.83 (0.10) % injected dose per gram; Biodistribution of radioactivity, Pancreas (60 min after injection): 0.77 (0.28) % injected dose per gram; Biodistribution of radioactivity, Spleen (2 min after injection): 2.37 (0.41) % injected dose per gram; Biodistribution of radioactivity, Spleen (10 min after injection): 1.28 (0.19) % injected dose per gram; Biodistribution of radioactivity, Spleen (30 min after injection): 0.86 (0.14) % injected dose per gram; Biodistribution of radioactivity, Spleen (60 min after injection): 0.75 (0.17) % injected dose per gram; Biodistribution of radioactivity, Stomach (2 min after injection): 1.30 (0.43) % injected dose per organ; Biodistribution of radioactivity, Stomach (10 min after injection): 2.53 (0.97) % injected dose per organ; Biodistribution of radioactivity, Stomach (30 min after injection): 2.82 (1.88) % injected dose per organ; Biodistribution of radioactivity, Stomach (60 min after injection): 2.26 (0.88) % injected dose per organ
3 | Nc1ccc(/C=C2\Oc3ccc([125I])cc3C2=O)cc1 [[^125I]14] | 3.64 (0.78) % injected dose per gram | 4.38 (0.52) % injected dose per gram | 2.87 (0.82) % injected dose per gram | 2.35 (1.38) % injected dose per gram | 4.57 (0.27) % injected dose per gram | 1.51 (0.17) % injected dose per gram | 0.49 (0.06) % injected dose per gram | 0.26 (0.03) % injected dose per gram | 6.77 (0.74) % injected dose per gram | 2.69 (0.45) % injected dose per gram | 1.30 (0.41) % injected dose per gram | 0.98 (0.25) % injected dose per gram | 3.12 (0.85) % injected dose per gram | 5.06 (1.51) % injected dose per gram | 15.47 (5.48) % injected dose per gram | 18.30 (7.21) % injected dose per gram | 10.87 (2.95) % injected dose per gram | 13.12 (4.30) % injected dose per gram | 12.05 (5.44) % injected dose per gram | 4.95 (1.82) % injected dose per gram | Biodistribution of radioactivity, Liver (2 min after injection): 9.17 (3.45) % injected dose per gram; Biodistribution of radioactivity, Liver (10 min after injection): 8.48 (2.84) % injected dose per gram; Biodistribution of radioactivity, Liver (30 min after injection): 7.64 (2.19) % injected dose per gram; Biodistribution of radioactivity, Liver (60 min after injection): 5.85 (1.09) % injected dose per gram; Biodistribution of radioactivity, Lung (2 min after injection): 9.06 (0.47) % injected dose per gram; Biodistribution of radioactivity, Lung (10 min after injection): 7.01 (0.28) % injected dose per gram; Biodistribution of radioactivity, Lung (30 min after injection): 5.83 (0.55) % injected dose per gram; Biodistribution of radioactivity, Lung (60 min after injection): 5.23 (1.44) % injected dose per gram; Biodistribution of radioactivity, Pancreas (2 min after injection): 4.96 (0.44) % injected dose per gram; Biodistribution of radioactivity, Pancreas (10 min after injection): 2.01 (0.49) % injected dose per gram; Biodistribution of radioactivity, Pancreas (30 min after injection): 1.22 (0.21) % injected dose per gram; Biodistribution of radioactivity, Pancreas (60 min after injection): 0.87 (0.30) % injected dose per gram; Biodistribution of radioactivity, Spleen (2 min after injection): 2.29 (0.36) % injected dose per gram; Biodistribution of radioactivity, Spleen (10 min after injection): 1.64 (0.29) % injected dose per gram; Biodistribution of radioactivity, Spleen (30 min after injection): 0.84 (0.29) % injected dose per gram; Biodistribution of radioactivity, Spleen (60 min after injection): 0.92 (0.07) % injected dose per gram; Biodistribution of radioactivity, Stomach (2 min after injection): 1.59 (0.71) % injected dose per organ; Biodistribution of radioactivity, Stomach (10 min after injection): 2.94 (0.86) % injected dose per organ; Biodistribution of radioactivity, Stomach (30 min after injection): 4.01 (2.29) % injected dose per organ; Biodistribution of radioactivity, Stomach (60 min after injection): 3.49 (2.00) % injected dose per organ
